# Where a name gives a salt, the structure may show the parent alone.
# Experiments:
# Type in all cases: physicochemical
# [1] = Aerosol performance, Next Generation Impactor (NGI) with powder deaggregator and RS01 capsule piercing mechanism; settings: pure drug (100% API)
# Description: There are several inertia sampling apparatuses that can be used to assess aerosol performance of dry powder formulations. (<601> Aerosols, Nasal Sprays, Metered-Dose Inhalers, and Dry Powder Inhalers Monograph, in USP 29-NF 24 The United States Pharmacopoeia and The National Formulary: The Official Compendia of Standards. 2006, The United States Pharmacopeial Convention, Inc.: Rockville, Md. p. 2617-2636 (“USP<601>”).) These apparatus classify aerosol particles on the basis of the particles' aerodynamic diameter. Each stage of the impactor includes a single or series of nozzles with specific cutoff size. Particles are entrained into the apparatus. Those having sufficient inertia will impact on that particular stage collection plate, while smaller particles with insufficient inertia will remain entrained in the airstream and pass to the next stage where the process is repeated. The aerodynamic size distribution of API can be assessed by collecting the deposited API mass and the ED %, RF %, FPF % and MMAD (μm) can be calculated from the API deposition pattern. The emitted dose fraction (ED (%); Eq. 4) is determined as the percentage powder mass emitted from the initial dosing chamber/capsule relative to the total dose in capsules (nominal dose) (TD). Emitted dose (ED) includes the sum of the API mass […] deposited on the device stages. Fine particle fraction (FPF (%); Eq. 5) is expressed as a percentage of fine particle dose (FPD) below a certain aerodynamic cutoff size to ED. Respirable fraction (RF (%); Eq. 6) is defined as the percentage of FPD to total dose (TD).
# Formulation aerosol performance tests were carried out using a powder deaggregator modified from that described in U.S. Patent Publication Nos. 2013/0340754 and 2013/0340747 combined with an off-the-shelf RS01 dry powder inhaler capsule piercing mechanism (Plastiape, IT) feeding method. […] The experiments were conducted at an airflow rate that gave a system pressure drop of 2 kPa (about 40 L/min, 4 L inhalation volume duration: 5.5 sec) or 4 kPa (about 60 L/min, 4 L inhalation volume duration: 3.9 sec).
# Packaging: The blends were packaged into size 3 HPMC capsules. Nominal dose amounts of 3 mg were prepared for each formulation; 10 mg nominal doses were also prepared for pure drug VarBase and Var(HCl)2·xH2O formulations.
# Methods: Two inertial sampling systems were used to assess aerosol performance: (1) a Next Generation Impactor® (“NGI”) (Copley Scientific, Shoreview, Minn.), and (2) a Twin Stage Liquid Impinge (“TSLI”) (Copley Scientific, Shoreview, Minn.). Aerosol performance of the VarHCl·xH2O formulation was assessed using the TSLI device, while the other formulations were all assessed using the NGI device. The NGI experiments were carried out using methods in general agreement with the USP<601>, and the TSLI experiments were carried using methods in general agreement with the British Pharmacopoeia, 2007, Vol. IV, Appendix XIIF. A291 Aerodynamic assessment of fine particles, fine particle dose and particle size distribution. The NGI experiments were run at a controlled airflow rate that gave a pressure drop of either 2 or 4 kPa across the device. Specifically, at Q=61.4 L/min with a delay time of 3.9 sec; and at Q=43.4 L/min with a delay time of 5.5 sec. Before the aerosol testing, the NGI collection plates were coated with suitable coating. Mass median aerodynamic diameter (MMAD) of aerosol particles distribution was determined based on a log-probability distribution (API particle size versus API deposition percentage) obtained from the NGI data. The TSLI experiments were run at Q=60 L/min, 4 sec to achieve ΔP≈4 kPa, with a cutoff size of 6.4 μm.
# [2] = Dynamic vapor sorption (DVS) moisture sorption and desorption; settings: 20° C.; for moisture sorption and desorption behavior: micronized, 0-80% P/Po
# Protocol: DVS Analysis: No DVS results of these APIs have been previously reported. Moisture sorption and desorption behavior was assessed using a DVS-Advantage 1 (Surface Measurement Systems, Allentown, Pa.). Experimental parameters: sample % P/Po in a range of 0-80; 5% P/Po increment, equilibrium criteria, both sorption and desorption. Experiments conducted at 20° C.
# [3] = Particle size analysis of micronized APIs by laser diffraction; settings: micronized (jet-milled), dispersed in mineral spirit
# Protocol: Var(HCl)2·xH2O, VarBase, and VarHCl·3H2O were purchased and then micronized using a commercial dry jet-miller. The jet milling was achieved using typical jet milling conditions and a single milling process. As shown in Example 5, micronization leads to partial dehydration of VarHCl·3H2O. As such, following micronization and absent rehydration, the compound is designated as VarHCl·xH2O.
# The APIs were dispersed in mineral spirit, and particle size analysis was performed by laser diffraction using a Microtrac×100 Particle Size Analyzer. Particle size span was calculated as
# [formula] where Dv0.1, Dv0.5 and Dv0.9 are 10%, 50% and 90% of the volume size distributed below the respective values.
# [4] = Intrinsic stability testing (acid, base, oxidative degradation in solution) by HPLC; settings: acidic, basic and oxidative conditions per ICH Guidance
# Protocol: Method: VarHCl·3H2O, HPLC grade water, 36.5% HCl, NaOH pellets, 6% H2O2 were all purchased, and 1N HCl and 1N NaOH were prepared in house. Intrinsic stability testing was performed according to International Conference on Harmonization (ICH) Guidance for Industry Q1A(R2) Stability Testing of New Drug Substances and Products (November 2003, Rev. 2). Briefly, the compound was tested for acid hydrolysis (1N HCl) and base hydrolysis (1N NaOH) at r.t. for 48 hr and at 60° C. for 4 hr. Oxidation assessment (6% H2O2) was performed at r.t. for 48 hr. The stability of VarHCl·3H2O in solution was assessed using HPLC analysis as described above in Example 1, Section A.
# [5] = 3 mg dose, dihydrochloride hydrate
smiles,measurement,setting,value
"CCCc1nc(C)c2c(=O)[nH]c(-c3cc(S(=O)(=O)N4CCN(CC)CC4)ccc3OCC)nn12 [Var(HCl)2•xH2O (rehydrated), dihydrochloride hydrate]",ED(%),[1]; [5],71.4%
same,FPF(ED)(%),[1]; [5],63.6%
same,MMAD,[1]; [5],1.37 μm
same,RF(%),[1]; [5],45.4%
"CCCc1nc(C)c2c(=O)[nH]c(-c3cc(S(=O)(=O)N4CCN(CC)CC4)ccc3OCC)nn12 [VarBase, 2-[2-ethoxy-5-(4-ethylpiperazin-1-yl)sulfonylphenyl]-5-methyl-7-propyl-1H-imidazo[5,1-i][1,2,4]triazin-4-one]",moisture sorption and desorption behavior,[2],no hydration occurred
same,DV50,[3],1.557 μm
same,Span,[3],1.557
same,ED(%),[1]; 3 mg dose,81.8%
same,FPF(ED)(%),[1]; 3 mg dose,56.0%
same,MMAD,[1]; 3 mg dose,1.32 μm
same,RF(%),[1]; 3 mg dose,45.8%
same,ED(%),[1]; 10 mg dose,64.2%
same,FPF(ED)(%),[1]; 10 mg dose,37.2%
same,MMAD,[1]; 10 mg dose,1.51 μm
same,RF(%),[1]; 10 mg dose,23.9%
"CCCc1nc(C)c2c(=O)[nH]c(-c3cc(S(=O)(=O)N4CCN(CC)CC4)ccc3OCC)nn12 [VarHCl, vardenafil hydrochloride]",moisture sorption and desorption behavior,[2]; hydrochloride,highly hygroscopic
same,relative humidity at which a first water molecule bound to form a monohydrate,[2]; sorption phase,5%
"CCCc1nc(C)c2c(=O)[nH]c(-c3cc(S(=O)(=O)N4CCN(CC)CC4)ccc3OCC)nn12 [VarHCl·3H2O, vardenafil hydrochloride trihydrate]",relative humidity below which water loss occurred,[2]; desorption phase,lower than 15%
same,humidity range in which the trihydrate form is stable / maintained,"[2]; desorption phase, hydrochloride trihydrate",10-80 % RH
same,relative humidity up to which integrity is maintained (not reaching deliquescence),[2]; sorption phase,up to 80 % RH
same,extent of degradation,[4],significant in basic and oxidative conditions
